This is an account of results in patent publication US6416783B1, “Aspartic and malic acid inhibition of ss-glucuronidase” (Wisconsin Alumni Research Foundation, priority 1999, dated 2002).

Assay [1] concerns the target T1, β-glucuronidase (Homo sapiens, UniProt P08236).
T1 construct: We used human breast milk collected and pooled from a newborn nursery as the β-glucuronidase source; from tissue
T1 sequence (P08236 23-651): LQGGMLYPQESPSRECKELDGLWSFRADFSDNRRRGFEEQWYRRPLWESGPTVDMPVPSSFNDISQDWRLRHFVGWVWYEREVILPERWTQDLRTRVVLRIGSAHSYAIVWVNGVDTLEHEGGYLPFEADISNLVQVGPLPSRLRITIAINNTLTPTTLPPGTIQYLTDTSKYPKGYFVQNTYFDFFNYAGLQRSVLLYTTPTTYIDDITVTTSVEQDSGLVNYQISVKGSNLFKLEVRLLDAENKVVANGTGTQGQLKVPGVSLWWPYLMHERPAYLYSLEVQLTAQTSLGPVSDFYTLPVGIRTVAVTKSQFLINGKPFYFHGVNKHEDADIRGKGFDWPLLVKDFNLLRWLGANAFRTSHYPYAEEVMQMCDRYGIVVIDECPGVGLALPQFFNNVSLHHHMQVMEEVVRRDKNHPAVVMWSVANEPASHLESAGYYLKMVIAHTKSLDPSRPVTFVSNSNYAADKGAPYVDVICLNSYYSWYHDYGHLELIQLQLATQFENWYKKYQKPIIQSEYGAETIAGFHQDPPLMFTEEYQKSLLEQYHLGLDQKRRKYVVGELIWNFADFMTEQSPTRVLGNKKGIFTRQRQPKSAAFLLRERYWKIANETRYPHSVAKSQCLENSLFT
Kind of assay: Standard Test: β-glucuronidase activity of human breast milk with MUG substrate (fluorescence). The format is biochemical. Conditions: for remaining activity at 100 µM / remaining activity at 1000 µM / remaining activity at 10000 µM / β-glucuronidase activity, % (of control) / X (mean activity) / β-glucuronidase activity (row unlabelled): Example 4; for β-glucuronidase activity, % (of control): 0.1, 1, 10 mM; for X (mean activity) / mean (X̄) activity: mean of 3; for X (mean activity) / β-glucuronidase activity (row unlabelled): in pmol/tube/h; for β-glucuronidase activity (row unlabelled) / Activity (pmole/tube/hr): single replicates. On the procedure: We first developed a standard assay procedure (the “Standard Test”). We used human breast milk collected and pooled from a newborn nursery as the β-glucuronidase source. The samples were stored at −20° C. The milk was thawed and diluted 10× with 0.2 M sodium acetate/glacial acetic acid (NaAC) buffer pH 4.5 just prior to being used. A 4.0 mM stock solution of 4-methylumbelliferyl β-D-glucuronide (MUG, Sigma M-9130 lot#75H3777) was prepared in 0.2 M NaAC buffer pH 4.5.
Triplicate test and blank tubes contained a reaction mixture consisting of 50 μL diluted breast milk and 50 μL of an inhibitor solution diluted with 0.2 M NaAC buffer pH 4.5. Controls were prepared that contained only 50 μL diluted breast milk and 50 μL 0.2 M NaAC buffer pH 4.5. The assay was started by adding 25 μl of the MUG (4.0 mM, 0.800 mM final concentration) to the test sample to start the reaction. The final volume of the reaction was 125 μL. Both blank and test samples were vortexed and incubated at 37° C. for 1 hour (or for shorter times if indicated).
The reaction was quenched in both the test and blank samples with 3.0 ml of glycine-carbonate (320 mM: 200 mM) buffer pH 10.0. The blank samples had 25 μl of the MUG (4.0 mM, 0.800 mM final) added to them and all tubes were vortexed.
The resulting fluorescence was read using a Perkin Elmer LS5-B fluorescence spectrophotometer (360 nm excitation, 445 nm emission, autorange scale). The amount of 4-methylumbelliferone (4-MU) released by the β-glucuronidase was calculated using a 4-MU quadratic standard curve and the Mathplot software. The velocity was calculated as pmoles of 4-MU formed per hour per ml undiluted breast milk.
We diluted pooled breast milk 20× with 0.2 M NaAC buffer pH 4.5. We diluted 2.2% w/v solution of Amicase (Sigma Cat. #A2427—a mixture of free amino acids with virtually no unhydrolyzed peptides, only minimal inorganic components are present, total nitrogen ˜12.8%, amino nitrogen ˜9.8%) with buffer 5×. We then incubated 50 μl milk with 50 μl buffer and Amicase. We then added 25 μl MUG to start the reaction. We then quenched with Na-carbonate buffer pH 10.0 and read fluorescence at 360 nm ex 445 nm em. Autorange scale. The mixture of amino acids was compared to controls and Nutramigen® as follows:
We then studied the effect of specific amino acid mixtures on β-glucuronidase activity. We diluted pooled breast milk 10× with 0.2 M NaAC buffer pH 4.5 and diluted 50×stock essential amino acid solution (Sigma Cat #M7020=L-arginine.HCl 6.32 g/L, L-cystine 1.2 g/L, L-histidine.HCl.H20 2.1 g/L, L-isoleucine 2.625 g/L, L-leucine 2.62 g/L, L-lyscine.HCl 3.625 g/L, L-methionine 0.755 g/L, L-phenylalanine 1.65 g/L, L-threonine 2.38 g/L, L-tryptophane 0.51 g/L, L-tyrosine 1.8 g/L, L-valine 2.34 g/L).
We also used a non-essential AA solution=Sigma Cat #M7145=L-alanine HCl 0.89 g/L, L-asparagine.H20 1.50 g/L, L-aspartic acid 1.33 g/L, L-glutamic acid 1.47 g/L, glycine 0.75 g/L, L-proline 1.15 g/L, L-serine 1.05 g/L.
We 5×diluted 100×stock essential AA solution. We incubated 50 μl diluted milk with 50 μl buffer (control), or the essential AA solution, or the non-essential AA solution, or Nutramigen® RTU, added 25 μl MUG to start the reaction, quenched with Na-carbonate buffer, and read fluorescence (360 nm excitation: 445 nm emission). The results are as follows:
We then analyzed inhibitory effect of each of the seven amino acids in the non-essential amino acid mixture. We diluted pooled breast milk 10× with 0.2 M NaAC buffer pH 4.5, and diluted Nutramigen® RTU (N) and Nutramigen® lipid-free supernatant (LFS) 5 fold with 0.2 M NaAC buffer pH 4.5.
We prepared stock solutions of each of the non-essential amino acids L-alanine (Ala), L-asparagine (Asn), L-aspartic acid (Asp), L-glutamic acid (Glu), glycine (Gly), L-proline (Pro), and L-Serine (Ser). All solutions were at pH 4.5. The final concentration of each amino acid in the assay was the same as when the amino acids were analyzed as a mixture. […]

The conditions of assay [2]: cited from earlier work.
Setting [3] is: 0.1 mM, read-out: % (activity relative to control).
Where [4] appears, read: 1 mM, read-out: % (activity relative to control).
Where [5] appears, read: 10 mM, read-out: % (activity relative to control).

Each structure is given as a SMILES string. Several values for one entry are separate records, joined by “and”; a condition that tells them apart may be missing. Identical values can stand only once. Like-named read-outs stand apart in the source and are kept apart here.

Consider `CC(=O)N[C@H]1C(O)O[C@H](CO)[C@H](O)[C@@H]1O` (stereo partly drawn) [NAG, N-acetyl-D-galactosamine], for which the remaining activity at 100 µM in assay [1] (setting [3]) was 98.4%. For the same molecule, the remaining activity at 1000 µM in assay [1] (setting [4]) was 99.3%. Besides, in assay [1] (setting [5]), the remaining activity at 10000 µM came to 100%. Further, in assay [1], the “β-glucuronidase activity, % (of control)” value is on record as 98-100%. Also, the “X (mean activity)” value was found to be 814.1 in assay [1] (0.1 mM), 821.6 in assay [1] (1 mM) and 827.9 in assay [1] (10 mM). The “β-glucuronidase activity (row unlabelled)” value in assay [1] (0.1 mM) was 811.8 and 817.0 and 813.4; in assay [1] (1 mM) it was 805.6 and 850.0 and 809.3; in assay [1] (10 mM), 835.1 and 824.1 and 824.3.
Take `CC(=O)N[C@H]1[C@H]([C@H](O)[C@H](O)CO)OC(O)(C(=O)O)C[C@@H]1O` (some centres unmarked) [NAN, N-acetylneuraminic acid]: the remaining activity at 100 µM in assay [1] (setting [3]) turned out to be 99.3%. Moreover, the remaining activity at 1000 µM in assay [1] (setting [4]) came out at 99.2%. For the same molecule, the remaining activity at 10000 µM in assay [1] (setting [5]) is 110%. The “β-glucuronidase activity, % (of control)” value in assay [1] was 99-100%. The “X (mean activity)” value in assay [1] (0.1 mM) was 821.9; in assay [1] (1 mM), 820.5; in assay [1] (10 mM), 905.7. Also, the “β-glucuronidase activity (row unlabelled)” value was 806.4 and 848.2 and 810.9 in assay [1] (0.1 mM); 829.9 and 827.6 and 803.9 in assay [1] (1 mM); 897.8 and 912.1 and 907.2 in assay [1] (10 mM).
Take `O=C(O)[C@@H]1CCCN1` [Pro, L-proline]: the remaining activity at 46 µg/mL in assay [1] (Example 3, 46.0 μg/ml, read-out: % (activity relative to control)) amounted to 99.3%. In assay [1] (Example 3, 46.0 μg/ml), the “mean (X̄) activity” value worked out at 669.6 pmole/tube/hr; the “Activity (pmole/tube/hr)” value was 666.1 pmole/tube/hr and 679.7 pmole/tube/hr and 662.9 pmole/tube/hr.
Take `N[C@@H](CO)C(=O)O` [Ser, L-Serine]: the remaining activity at 42.2 µg/mL in assay [1] (Example 3, 42.2 μg/ml, read-out: % (activity relative to control)) was found to be 99.3%. Also, in assay [1] (Example 3, 42.2 μg/ml), the “mean (X̄) activity” value is on record as 669.2 pmole/tube/hr; the “Activity (pmole/tube/hr)” value was 677.7 pmole/tube/hr and 670.6 pmole/tube/hr and 659.2 pmole/tube/hr.
For the molecule `N[C@@H](CC(=O)O)C(=O)O` [aspartic acid], the serum bilirubin level entry in assay [2] (a premature infant with neonatal hyperbilirubinemia, Kohno et al. 1963) was “lowered”; in assay [2] (some cases of hyperbilirubinemia, Saito et al. 1964), “decreased”. Also, the “effect on serum bilirubin concentrations” value in assay [2] (double-blind, pre-term formula-fed infants, given each of the first six days of life, Gray et al. 1971) is “no effect”.
